Patent US9212168B2 (priority 2011, dated 2015)

What was measured:
HCV genotype 1b replicon = HCV genotype 1b replicon assay (Renilla luciferase readout); format: cell-based, hepatitis C virus; conditions: for Genotype 1b: HCV genotype 1b replicon; for EC50: Hepatitis C virus, read-out: Genotype 1b
Summary of the method: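 Reported as pEC50 derived from a 4-parameter fit of Renilla luciferase activity against concentration. Replicon cells (APC144, Huh7 background) were exposed to compound for 48 h in G418-free medium with final 0.5% DMSO, after seeding at 10,000 cells/well and 4 h adherence.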

HCV genotype 1a replicon = HCV genotype 1a replicon assay (NS3 protease activity readout); format: cell-based, hepatitis C virus; conditions: for Genotype 1a: HCV genotype 1a replicon; for EC50: Hepatitis C virus, read-out: Genotype 1a, HCV genotype 1a replicon
Summary of the method: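 EC50 values came from a 4-parameter robust fit of fluorescence (ex 340, em 509 nm) produced by NS3-specific protease in lysates, assayed with 15 μM FRET substrate for 20 min at 37° C, after 48 or 72 hours of compound exposure (0.5% DMSO) of Huh7.5-derived APC89 genotype 1a replicon cells.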

COC(=O)N[C@H](C(=O)N1C[C@@H](C)C[C@H]1c1nc(-c2ccc(-c3ccc(C(=O)Nc4ccc(N5C[C@H](C)N(C(=O)[C@@]6(O)CC6(C)C)C[C@H]5C)nc4)cc3OC(F)(F)F)cc2)c(Cl)[nH]1)C(C)C [Example 4-37]
Genotype 1b (HCV genotype 1b replicon): D (D represents pEC50>10 (EC50<0.1 nM)) | Genotype 1a (HCV genotype 1a replicon): D (D represents pEC50>10 (EC50<0.1 nM))

COC(=O)N[C@H](C(=O)N1[C@@H](C)CC[C@H]1c1nc(-c2ccc(-c3cc(Cl)c(C(=O)Nc4ccc(N5CCN(C(=O)C(C)(C)C)C[C@H]5C)nc4)cc3OC(F)(F)F)cc2)c[nH]1)C1CCOCC1 [Example 18-5]
Genotype 1b (HCV genotype 1b replicon): D (D represents pEC50>10 (EC50<0.1 nM)) | Genotype 1a (HCV genotype 1a replicon): D (D represents pEC50>10 (EC50<0.1 nM))

COC(=O)N[C@H](C(=O)N1C[C@@H](C)C[C@H]1c1nc(-c2ccc(-c3cc(Cl)c(NC(=O)c4ccc(N5CCN(C(=O)NN6CCOC6=O)C[C@H]5C)nc4)cc3OC(F)(F)F)cc2)c[nH]1)C(C)C [Example 12-17]
EC50 (HCV genotype 1b replicon): < 0.1 nM | EC50 (HCV genotype 1a replicon): < 0.1 nM

COC(=O)N[C@H](C(=O)N1C[C@@H](C)C[C@H]1c1nc(-c2ccc(-c3cc(Cl)c(NC(=O)c4ccc(N5CCN(C(=O)c6nccn6C)C[C@H]5C)nc4)cc3OC(F)(F)F)cc2)c[nH]1)C(C)C [Example 1-36]
Genotype 1b (HCV genotype 1b replicon): D (D represents pEC50>10 (EC50<0.1 nM)) | Genotype 1a (HCV genotype 1a replicon): D (D represents pEC50>10 (EC50<0.1 nM))

COCC(C)(C)C(=O)N1CCN(c2ccc(C(=O)Nc3cc(OC(F)(F)F)c(-c4ccc(-c5c[nH]c([C@@H]6C[C@H](C)CN6C(=O)[C@@H](NC(=O)OC)C(C)C)n5)cc4)cc3Cl)cn2)[C@H](C)C1 [Example 12-32]
EC50 (HCV genotype 1b replicon): < 0.1 nM | EC50 (HCV genotype 1a replicon): < 0.1 nM

CCC(=O)N1CCC[C@@H]1C(=O)N1C[C@@H](C)N(c2ccc(NC(=O)c3ccc(-c4ccc(-c5c[nH]c([C@@H]6C[C@H](C)CN6C(=O)[C@@H](NC(=O)OC)C(C)C)n5)cc4)c(OC(F)(F)F)c3)cn2)C[C@@H]1C [Example 4-21]
Genotype 1b (HCV genotype 1b replicon): D (D represents pEC50>10 (EC50<0.1 nM)) | Genotype 1a (HCV genotype 1a replicon): D (D represents pEC50>10 (EC50<0.1 nM))

COC(=O)N[C@H](C(=O)N1C[C@@H](OC)C[C@H]1c1nc(-c2ccc(-c3cc(Cl)c(NC(=O)c4ccc(N5CCN(C(=O)C(C)(C)C)C[C@H]5C)nc4)cc3OC(F)(F)F)cc2)c[nH]1)[C@H](C)O [Example 16-2]
Genotype 1b (HCV genotype 1b replicon): D (D represents pEC50>10 (EC50<0.1 nM)) | Genotype 1a (HCV genotype 1a replicon): D (D represents pEC50>10 (EC50<0.1 nM))

COCC(=O)N1CCC[C@@]1(C)C(=O)N1CCN(c2ccc(NC(=O)c3ccc(-c4ccc(-c5c[nH]c([C@@H]6C[C@H](C)CN6C(=O)[C@@H](NC(=O)OC)C(C)C)n5)cc4)c(OC(F)(F)F)c3)cn2)[C@H](C)C1 [Example 4-4]
Genotype 1b (HCV genotype 1b replicon): D (D represents pEC50>10 (EC50<0.1 nM)) | Genotype 1a (HCV genotype 1a replicon): D (D represents pEC50>10 (EC50<0.1 nM))

CNC(=O)N1C[C@@H](C)N(c2ccc(NC(=O)c3ccc(-c4ccc(-c5nc([C@@H]6C[C@H](C)CN6C(=O)[C@@H](NC(=O)OC)C(C)C)[nH]c5Cl)cc4)c(OC(F)(F)F)c3)cn2)C[C@@H]1C [Example 4-12]
Genotype 1b (HCV genotype 1b replicon): D (D represents pEC50>10 (EC50<0.1 nM)) | Genotype 1a (HCV genotype 1a replicon): D (D represents pEC50>10 (EC50<0.1 nM))

COC(=O)NC(C(=O)N1C[C@@H](C)C[C@H]1c1nc(-c2ccc(-c3ccc(C(=O)Nc4ccc(N5CCN(C(=O)C(C)(C)C)C[C@H]5C)nc4)c(F)c3OC(F)(F)F)cc2)c[nH]1)C1CCOCC1 (stereo partly drawn) [Example 25-2]
EC50 (HCV genotype 1b replicon): < 0.1 nM | EC50 (HCV genotype 1a replicon): < 0.1 nM

COC(=O)NC(C(=O)N1C(C)CCC1c1nc(-c2ccc(-c3cc(Cl)c(NC(=O)c4ccc(N5CCN(C(=O)C6CC6(C)C)CC5C)nc4)cc3OC(F)(F)F)cc2)c[nH]1)C(C)C (stereo not drawn) [Example 17-4]
Genotype 1b (HCV genotype 1b replicon): D (D represents pEC50>10 (EC50<0.1 nM)) | Genotype 1a (HCV genotype 1a replicon): D (D represents pEC50>10 (EC50<0.1 nM))

COC(=O)N[C@H](C(=O)N1C[C@@H](C)C[C@H]1c1nc(-c2ccc(-c3cc(Cl)c(NC(=O)c4ccc(N5C[C@H](C)N(C(=O)c6c[nH]cn6)C[C@H]5C)nc4)cc3C(F)(F)F)cc2)c[nH]1)C(C)C [Example 3, [(S)-1-((2S,4S)-2-{4-[5′-Chloro-4′-({6-[(2R,5S)-4-(1H-imidazole-4-carbonyl)-2,5-dimethyl-piperazin-1-yl]-pyridine-3-carbonyl}-amino)-2′-trifluoromethyl-biphenyl-4-yl]-1H-imidazol-2-yl}-4-methyl-pyrrolidine-1-carbonyl)-2-methyl-propyl]-carbamic acid methyl ester]
EC50 (HCV genotype 1b replicon): < 0.1 nM | EC50 (HCV genotype 1a replicon): < 0.1 nM

COC(=O)N[C@H](C(=O)N1C[C@@H](C)C[C@H]1c1nc(-c2ccc(-c3cc(F)c(NC(=O)c4ccc(N5C[C@H](C)N(C(=O)[C@H]6CC6(C)C)C[C@H]5C)nc4)cc3C(F)(F)F)cc2)c[nH]1)C(C)C [Example 1-7]
Genotype 1b (HCV genotype 1b replicon): D (D represents pEC50>10 (EC50<0.1 nM)) | Genotype 1a (HCV genotype 1a replicon): D (D represents pEC50>10 (EC50<0.1 nM))

COC(=O)N[C@H](C(=O)N1C[C@@H](C)C[C@H]1c1nc(-c2ccc(-c3cc(Cl)c(NC(=O)c4ccc(N5C[C@H](C)N(C(=O)C6CC6)C[C@H]5C)nc4)cc3OC(F)(F)F)cc2)c[nH]1)C(C)C [Example 1-43]
Genotype 1b (HCV genotype 1b replicon): D (D represents pEC50>10 (EC50<0.1 nM)) | Genotype 1a (HCV genotype 1a replicon): D (D represents pEC50>10 (EC50<0.1 nM))

COC(=O)N[C@H](C(=O)N1C[C@@H](C)C[C@H]1c1nc(-c2ccc(-c3cc(Cl)c(NC(=O)c4ccc(N5C[C@H](C)N(C(=O)[C@H]6CC6(C)C)C[C@H]5C)nc4)cc3C(F)(F)F)cc2)c[nH]1)C(C)C [Example 1-11]
Genotype 1b (HCV genotype 1b replicon): D (D represents pEC50>10 (EC50<0.1 nM)) | Genotype 1a (HCV genotype 1a replicon): D (D represents pEC50>10 (EC50<0.1 nM))

COC(=O)N[C@H](C(=O)N1C[C@@H](C)C[C@H]1c1nc(-c2ccc(-c3ccc(C(=O)Nc4ccc(N5CCN(C(=O)[C@]6(C)CCCN6C(=O)[C@@H](NC(=O)OC)C(C)C)C[C@H]5C)nc4)cc3)cc2)c[nH]1)C(C)C [Example 4-2]
Genotype 1b (HCV genotype 1b replicon): D (D represents pEC50>10 (EC50<0.1 nM)) | Genotype 1a (HCV genotype 1a replicon): D (D represents pEC50>10 (EC50<0.1 nM))

COC(=O)N[C@H](C(=O)N1C[C@@H](OC)C[C@H]1c1nc(-c2ccc(-c3cc(F)c(NC(=O)c4ccc(N5CCN(C(=O)C(C)(C)CO)C[C@H]5C)nc4)cc3OC(F)(F)F)cc2)c[nH]1)C(C)C [Example 27-6]
Genotype 1b (HCV genotype 1b replicon): D (D represents pEC50>10 (EC50<0.1 nM)) | Genotype 1a (HCV genotype 1a replicon): D (D represents pEC50>10 (EC50<0.1 nM))

COC(=O)NC(C(=O)N1CC(OC)CC1c1nc(-c2ccc(-c3cc(F)c(NC(=O)c4ccc(N5CCN(C(=O)C(C)(C)CO)CC5C)nc4)cc3OC(F)(F)F)cc2)c[nH]1)C(C)OC (stereo not drawn) [Example 16-13]
Genotype 1b (HCV genotype 1b replicon): D (D represents pEC50>10 (EC50<0.1 nM)) | Genotype 1a (HCV genotype 1a replicon): D (D represents pEC50>10 (EC50<0.1 nM))

COC(=O)N[C@H](C(=O)N1C[C@@H](C)C[C@H]1c1nc(-c2ccc(-c3cc(Cl)c(C(=O)Nc4ccc(N5CCN(C(=O)C(C)(C)C)C[C@H]5C)nc4)cc3OC(F)(F)F)cc2)c[nH]1)C(C)C [Example 4-46]
Genotype 1b (HCV genotype 1b replicon): D (D represents pEC50>10 (EC50<0.1 nM)) | Genotype 1a (HCV genotype 1a replicon): D (D represents pEC50>10 (EC50<0.1 nM))

COC(=O)N[C@H](C(=O)N1C[C@@H](C)C[C@H]1c1nc(-c2ccc(-c3cc(F)c(NC(=O)c4ccc(N5CCN(C(=O)[C@H]6CC6(C)C)C[C@H]5C)nc4)cc3C(F)(F)F)cc2)c[nH]1)C(C)C [Example 1-5]
Genotype 1b (HCV genotype 1b replicon): D (D represents pEC50>10 (EC50<0.1 nM)) | Genotype 1a (HCV genotype 1a replicon): D (D represents pEC50>10 (EC50<0.1 nM))

COC(=O)NC(C(=O)N1CC(C)CC1c1nc(-c2ccc(-c3ccc(NC(=O)c4ccc(N5CCN(C(=O)C(C)(C)CO)CC5C)nc4)cc3OC(F)(F)F)cc2)c[nH]1)C(C)(C)O (stereo not drawn) [Example 13-28]
Genotype 1b (HCV genotype 1b replicon): D (D represents pEC50>10 (EC50<0.1 nM)) | Genotype 1a (HCV genotype 1a replicon): D (D represents pEC50>10 (EC50<0.1 nM))

COC(=O)N[C@H](C(=O)N1C[C@@H](C)C[C@H]1c1nc(-c2ccc(-c3cc(Cl)c(NC(=O)c4ccc(N5CCN(C(=O)C(C)(C)CO)C[C@H]5C)nc4)cc3OC(F)(F)F)cc2)c(CO)[nH]1)C1CCOCC1 [Example 20-3]
Genotype 1b (HCV genotype 1b replicon): D (D represents pEC50>10 (EC50<0.1 nM)) | Genotype 1a (HCV genotype 1a replicon): D (D represents pEC50>10 (EC50<0.1 nM))

COC(=O)N[C@H](C(=O)N1C[C@@H](C)C[C@H]1c1nc(-c2ccc(-c3cc(Cl)c(C(=O)Nc4ccc(N5CCN(C(=O)C(C)(C)C)C[C@H]5C)nc4)cc3OC(F)(F)F)cc2)c(Cl)[nH]1)C1CCOCC1 [Example 22-7]
EC50 (HCV genotype 1b replicon): < 0.1 nM | EC50 (HCV genotype 1a replicon): < 0.1 nM

COC(=O)N[C@H](C(=O)N1C[C@@H](O)C[C@H]1c1nc(-c2ccc(-c3cc(F)c(NC(=O)c4ccc(N5CCN(C(=O)C(C)(C)CO)C[C@H]5C)nc4)cc3OC(F)(F)F)cc2)c[nH]1)C(C)C [Example 26-7]
Genotype 1b (HCV genotype 1b replicon): D (D represents pEC50>10 (EC50<0.1 nM)) | Genotype 1a (HCV genotype 1a replicon): C (C represents pEC50 between and 9 and about 10, (EC50 between 1 nM and 0.1 nM))

COC(=O)N[C@H](C(=O)N1[C@H](c2nc(-c3ccc(-c4ccc(C(=O)Nc5ccc(N6CCN(C(=O)C7CC7(C)C)C[C@H]6C)nc5)cc4OC(F)(F)F)cc3)c[nH]2)C[C@@H]2CCCC[C@@H]21)C(C)C (stereo partly drawn) [Example 6-12]
EC50 (HCV genotype 1b replicon): < 0.1 nM | EC50 (HCV genotype 1a replicon): 0.1 to 1 nM

COC(=O)NC(CC1CCOCC1)C(=O)N1C[C@@H](C)C[C@H]1c1nc(-c2ccc(-c3cc(Cl)c(NC(=O)c4ccc(N5CCN(C(=O)C(C)(C)C)C[C@H]5C)nc4)cc3OC(F)(F)F)cc2)c[nH]1 (stereo partly drawn) [Example 13-34]
EC50 (HCV genotype 1b replicon): < 0.1 nM | EC50 (HCV genotype 1a replicon): < 0.1 nM

COC(=O)N[C@H](C(=O)N1C[C@@H](C)C[C@H]1c1nc(-c2ccc(-c3cc(F)c(NC(=O)c4ccc(N5C[C@H](C)N(C(=O)[C@H]6CC6(C)C)C[C@H]5C)nc4)cc3OC(F)(F)F)cc2)c[nH]1)C(C)C [Example 1-13]
Genotype 1b (HCV genotype 1b replicon): D (D represents pEC50>10 (EC50<0.1 nM)) | Genotype 1a (HCV genotype 1a replicon): D (D represents pEC50>10 (EC50<0.1 nM))
